In article PMC8776092, “A Toxoplasma gondii Oxopurine Transporter Binds Nucleobases and Nucleosides Using Different Binding Modes” (International Journal of Molecular Sciences, 2022):
Values joined by “and” are separate entries in the source; they are usually repeats but may differ in a detail not shown here. Equal values may be shown once. Read-outs that look alike come from different tables or passages of the source.

Target: T1, Tg244440 (Toxoplasma gondii, UniProt A0A125YNC9)
T1 sequence (A0A125YNC9 1-462): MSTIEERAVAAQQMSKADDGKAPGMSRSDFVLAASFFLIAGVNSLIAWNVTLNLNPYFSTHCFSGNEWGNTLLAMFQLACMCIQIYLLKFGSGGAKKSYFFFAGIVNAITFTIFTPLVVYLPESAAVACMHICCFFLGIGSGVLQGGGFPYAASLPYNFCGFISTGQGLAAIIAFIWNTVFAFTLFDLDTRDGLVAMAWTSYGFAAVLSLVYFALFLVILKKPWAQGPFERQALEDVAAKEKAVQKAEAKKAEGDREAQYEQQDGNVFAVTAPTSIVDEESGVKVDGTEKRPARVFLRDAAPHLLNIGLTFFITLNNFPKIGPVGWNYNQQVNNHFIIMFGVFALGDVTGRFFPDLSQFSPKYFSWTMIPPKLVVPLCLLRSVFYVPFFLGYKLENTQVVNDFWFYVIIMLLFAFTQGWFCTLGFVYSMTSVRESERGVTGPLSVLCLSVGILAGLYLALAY
Experiment: [3H]-guanine uptake and its inhibition in T. brucei TbNB-KO procyclics expressing Tg244440 (clone F5)
Type: cell-based
Conditions: for Ki: competition with 50 nM [3H]-guanine, Cheng-Prusoff; for Ki / Inhibition of [3H]-guanine transport by pyrimidines: 30 s; for ΔG^0 (Gibbs free energy of interaction): calculated from Km or Ki, ΔG0 = −RTln(Ki); for Inhibition of [3H]-guanine transport by pyrimidines: inhibitor at 1 mM, 0.1 μM [3H]-guanine
Description: Briefly, PCF cells of T. brucei in logarithmic growth were harvested by centrifugation at 1000× g for 10 min, washed twice in AB and then resuspended in fresh buffer at a final density of 10^8 cells/mL. […] Immediately after finishing the assay, all tubes were flash-frozen in liquid nitrogen and the cell pellets were cut into scintillation vials and lysed with a solution of 2% SDS for one hour under agitation. Then, 3 mL of scintillation fluid (Scintilogic U, Lablogic) was added to each vial and left agitating overnight on a rocking platform. The next morning, the vials were vigorously shaken to ensure optimal mixing and the scintillation was measured in a 300SL (Hidex) scintillation counter. All assays were carried out in triplicate. All experimental data such as Km, Ki and Vmax values are the average and SEM of at least three separate experiments, each in triplicate, unless otherwise indicated.
Background scintillation was measured in vials containing no cells or radiolabeled substrate, and counts associated with extracellular radiolabel were calculated from samples where cells were briefly incubated with the same concentration of radiolabel, but in the presence of saturating concentrations of non-radiolabeled substrate before centrifugation through oil. The average of the three control replicates was subtracted from each data point.

SMILES | Ki (Ki) [µM] | ΔG^0 (Gibbs free energy of interaction) [kJ/mol] | also measured
OC[C@H]1O[C@@H](n2cnc3c(O)ccnc32)[C@H](O)[C@@H]1O [1-deazainosine] | 524 ± 53 |  | δ(ΔG^0) relative to Inosine: 12.1 kJ/mol
Nc1nc2cc[nH]c2c(=O)[nH]1 [9-deazaguanine] | 9.64 ± 1.59 | -28.6 | δ(ΔG^0) relative to Guanine: 5.1 kJ/mol
Nc1nc2c(ncn2[C@@H]2O[C@H](CO)[C@@H](O)[C@H]2O)c(=O)[nH]1 [Guanosine] | 3.3 ± 0.3 | -31.3 | δ(ΔG^0) relative to Guanine: 2.4 kJ/mol
OC[C@H]1O[C@@H](n2cc(Cl)c3c(O)ncnc32)[C@H](O)[C@@H]1O [7-deaza-7-Chloroinosine] | 8.9 ± 1.3 | -28.8 | Affinity for Tg244440 (in words): high affinity; δ(ΔG^0) relative to Inosine: 1.9 kJ/mol
Cn1c(=O)[nH]c(=O)c2[nH]cnc21 [3-methylxanthine] | 14.6 ± 3.1 | -27.6 | 
O=c1[nH]cnc2c1CC=N2 [7-deazahypoxanthine] | 318 ± 30 | -20.0 | δ(ΔG^0) relative to Hypoxanthine: 12.3 kJ/mol
OC[C@H]1O[C@@H](n2cc(Br)c3c(O)ncnc32)[C@H](O)[C@@H]1O [7-deaza-7-Bromoinosine] | 7.8 ± 1.2 | -29.2 | Affinity for Tg244440 (in words): high affinity; δ(ΔG^0) relative to Inosine: 1.6 kJ/mol
Nc1nc2c(c(=O)[nH]1)CC=N2 [7-deazaguanine] | 49.2 ± 5.8 | -24.6 | δ(ΔG^0) relative to Guanine: 9.1 kJ/mol
Nc1ncnc2c1ncn2[C@H]1C[C@H](O)[C@@H](CO)O1 [2′-deoxyadenosine] | 83.9 ± 6.2 | -23.3 | δ(ΔG^0) relative to Adenosine: 0.5 kJ/mol
CCOc1ncnc2c1c(Cl)cn2[C@@H]1O[C@H](CO)[C@@H](O)[C@H]1O [6-O-ethyl,7-deaza,7-Cl-inosine] |  | -21.5 | Ki (read-out: Ki): 169 ± 10 µM; δ(ΔG^0) relative to Inosine: 9.2 kJ/mol
OC[C@H]1O[C@@H](n2cnc3c(O)ncnc32)C[C@@H]1O [2′-deoxyinosine] | 117 ± 12 | -22.4 | δ(ΔG^0) relative to Inosine: 8.3 kJ/mol
Sc1ncnc2nc[nH]c12 [6-Mercaptopurine] | 3.6 ± 0.8 | -31.1 | δ(ΔG^0) relative to Hypoxanthine: 1.2 kJ/mol
COc1ncnc2c1c(Cl)cn2[C@@H]1O[C@H](CO)[C@@H](O)[C@H]1O [6-O-methyl,7-deaza,7-Cl-inosine] |  | -25.1 | Ki (read-out: Ki): 39.6 ± 2.8 µM; δ(ΔG^0) relative to Inosine: 5.7 kJ/mol
Oc1ncnc2[nH]ncc12 [Allopurinol] | 185 ± 15 | -21.3 | δ(ΔG^0) relative to Hypoxanthine: 10.9 kJ/mol
O=c1[nH]cnc2cc[nH]c12 [9-deazahypoxanthine] | 9.12 ± 0.66 | -28.8 | δ(ΔG^0) relative to Hypoxanthine: 3.5 kJ/mol
Nc1nc(N)c2[nH]cnc2n1 [2,6-diaminopurine] | 211 ± 3.5 | -21.0 | δ(ΔG^0) relative to Adenine: -1.7 kJ/mol
Cc1c[nH]c(=O)[nH]c1=O [thymine] |  |  | Inhibition of [3H]-guanine transport by pyrimidines: significant inhibition

SMILES | Ki (Ki) [µM] | ΔG^0 (Gibbs free energy of interaction) [kJ/mol] | also measured
Nc1nc2nc[nH]c2c(=S)[nH]1 [6-Thioguanine] | 1.64 ± 0.25 | -33.0 | δ(ΔG^0) relative to Guanine: 0.7 kJ/mol
OC[C@H]1O[C@@H](n2ccc3c(O)ncnc32)C[C@@H]1O [7-deaza-2′-deoxyinosine] | 52.3 ± 8.4 | -24.4 | δ(ΔG^0) relative to 2′-Deoxyinosine (relative to 2′-Deoxyinosine): -2.0 kJ/mol
OC[C@H]1O[C@@H](n2cnc3c(S)ncnc32)[C@H](O)[C@@H]1O [6-thioinosine] | 7.3 ± 1.2 | -29.3 | δ(ΔG^0) relative to Inosine: 1.4 kJ/mol
O=c1[nH]c(=O)c2nc[nH]c2[nH]1 [Xanthine] | 42.4 ± 4.2 | -24.9 | δ(ΔG^0) relative to Guanine: 8.7 kJ/mol; δ(ΔG^0) relative to Hypoxanthine: 7.3 kJ/mol
C[C@H]1O[C@@H](n2cnc3c(N)ncnc32)[C@H](O)[C@@H]1O [5′-deoxyadenosine] | 85.2 ± 4.2 | -23.2 | δ(ΔG^0) relative to Adenosine: 0.6 kJ/mol
OC[C@@H]1C[C@@H](O)[C@H](n2ccc3c(O)ncnc32)O1 [7-deaza-3′-deoxyinosine] | 70.8 ± 11.2 | -23.7 | δ(ΔG^0) relative to 3′-Deoxyinosine (relative to 3′-Deoxyinosine): -0.9 kJ/mol
O=c1[nH]c(=O)c2[nH]ccc2[nH]1 [9-deazaxanthine] | 48.2 ± 5.4 | -24.6 | δ(ΔG^0) relative to Xanthine (relative to Xanthine): 0.3 kJ/mol
O=C1CC=Nc2nc[nH]c21 [1-deazahypoxanthine] | 194 ± 43 | -21.2 | δ(ΔG^0) relative to Hypoxanthine: 11 kJ/mol and 11.0 kJ/mol
OC[C@H]1O[C@@H](n2cnc3cncnc32)[C@H](O)[C@@H]1O [Nebularine, 9-(β-D-ribofuranosyl)purine] | 491 ± 75 | -18.9 | ΔG^0 (Gibbs free energy of interaction) (listed as nebularine): 18.9 kJ/mol; δ(ΔG^0) relative to Adenosine: 4.9 kJ/mol; δ(ΔG^0) relative to Inosine: 11.9 kJ/mol
C[C@H]1O[C@@H](n2cnc3c(O)ncnc32)[C@H](O)[C@@H]1O [5′-deoxyinosine] | 35.3 ± 3 | -25.4 | δ(ΔG^0) relative to Inosine: 5.4 kJ/mol
Nc1ncnc2[nH]cnc12 [Adenine] | 425 ± 80 | -19.2 | Affinity for Tg244440 (in words): Low affinity; δ(ΔG^0) relative to Hypoxanthine: 13.0 kJ/mol
Nc1nccc2c1ncn2[C@@H]1O[C@H](CO)[C@@H](O)[C@H]1O [3-deazaadenosine] | 1220 ± 140 | -16.6 | δ(ΔG^0) relative to Adenosine: 7.2 kJ/mol
Clc1ncnc2nc[nH]c12 [6-Chloropurine] | 109 ± 8 | -22.6 | δ(ΔG^0) relative to Hypoxanthine: 9.6 kJ/mol
O=c1[nH]cnc2nn[nH]c12 [8-azahypoxanthine] | > 1000 |  | inhibition at 1000 µM (read-out: Inhibition of the transport of 50 nM [3H]-guanine): < 50%; δ(ΔG^0) relative to Hypoxanthine: >15.1 kJ/mol
O=c1ccn([C@@H]2O[C@H](CO)[C@@H](O)[C@H]2O)c(=O)[nH]1 [uridine] |  |  | Inhibition of [3H]-guanine transport by pyrimidines: significant inhibition
Nc1ncnc2n[nH]cc12 [Aminopurinol] |  | -20.8 | Ki (read-out: Ki): 223 ± 27 µM; δ(ΔG^0) relative to Adenine: -1.6 kJ/mol
O=c1[nH]ccc2nc[nH]c12 [3-deazahypoxanthine] | 59.5 ± 7.2 | -24.1 | δ(ΔG^0) relative to Hypoxanthine: 8.1 kJ/mol
